Laboratory results reported in ChEMBL document CHEMBL4699652, “Proline Hinged Amphipathic α-Helical Peptide Sensitizes Gram-Negative Bacteria to Various Gram-Positive Antibiotics” (J Med Chem, 2020).
Active and inactive are the calls of the source. The rule behind the calls is not given here.

Key:
Acinetobacter baumannii [1] = test: Sensitization of rifampicin-induced antimicrobial activity against Acinetobacter baumannii OXA infected in mouse skin infection model assessed as reduction in skin ulcer at 7.5 mg/kg, sc TID for 5 days co-treated with 20 ug/kg, sc rifampicin; format: functional, organism-based; conditions: time 5.0 day
Staphylococcus aureus = test: Antimicrobial activity against Staphylococcus aureus ATCC 29213 assessed as inhibition of bacterial growth incubated for 18 hrs by CLSI based method; format: functional
Erythrocyte = test: Hemolytic activity in human red blood cells assessed as induction of hemoglobin release incubated for 4 hrs by microplate reader based assay; format: cell-based
Escherichia coli [2] = test: Sensitization of rifampicin-induced antimicrobial activity against Escherichia coli ATCC 25922 assessed as inhibition of bacterial growth at 4 to 8 ug/ml incubated for 18 hrs by CLSI based method; format: functional; conditions: dose microg/ml 4-8
Escherichia coli [3] = test: Sensitization of rifampicin-induced antimicrobial activity against Cst-resistant Escherichia coli isolates assessed as inhibition of bacterial growth at 8 ug/ml incubated for 18 hrs by CLSI based method; format: functional, organism-based; conditions: dose 8.0 µg/ml
Escherichia coli [4] = test: Sensitization of linezolid-induced antimicrobial activity against Cst-resistant Escherichia coli isolates assessed as inhibition of bacterial growth at 8 ug/ml incubated for 18 hrs by CLSI based method; format: functional, organism-based; conditions: dose 8.0 µg/ml
Escherichia coli [5] = test: Sensitization of clarithromycin-induced antimicrobial activity against Cst-resistant Escherichia coli isolates assessed as inhibition of bacterial growth at 8 ug/ml incubated for 18 hrs by CLSI based method; format: functional, organism-based; conditions: dose 8.0 µg/ml
[6] = Drug uptake in human HeLa cells at 1 uM incubated for 4 hrs using TAMRA-labeled compound; format: ADME, cell-based
[7] = Drug uptake in Escherichia coli at 1 uM incubated for 4 hrs using TAMRA-labeled compound; format: ADME
[8] = Drug localization in membrane of Escherichia coli at 1 uM incubated for 4 hrs using TAMRA-labeled compound; format: ADME, cell membranes, Cell membrane
[9] = Drug localization in cytosol of Escherichia coli at 1 uM incubated for 4 hrs using TAMRA-labeled compound; format: ADME, subcellular
Escherichia coli [10] = test: Induction of cell lysis in Escherichia coli at 5 uM by transmission electron microscopy; format: functional, organism-based
Cell membrane [11] = test: Induction of inner membrane permeability in Escherichia coli assessed as cytoplasmic beta-galactosidase release at 5 uM using ONPG
[12] = Induction of cell membrane permeability in POPE/POPG assessed as calcein leakage at 2 to 8 uM; conditions: dose microM 2-8
Cell membrane [13] = test: Induction of inner membrane permeability in Escherichia coli at 5 uM incubated for 1 hr by SYTOX Green-staining based flow cytometry analysis; format: subcellular
Cell membrane [14] = test: Induction of outer membrane re-arragenemnts in Escherichia coli ATCC 25922 incubated for 4 mins by NPN uptake assay; format: subcellular
Escherichia coli [15] = test: Sensitization of linezolid-induced induction of cell killing in Escherichia coli assessed as time needed for bacterial destruction at 8 ug/ml; format: functional; conditions: dose 8 µg/ml
Cell membrane [16] = test: Induction of membrane permeability in Escherichia coli assessed as increase in fine surface roughness at 25 uM by atomic force microscopy; format: subcellular
Lipopolysaccharide (LPS) [17] = test: Binding affinity to LPS in Escherichia coli D21 assessed as localization in membrane regions at 1 uM using TAMRA-labeled compound by confocal fluorescence microscopy
Lipopolysaccharide (LPS) [18] = test: Binding affinity to LPS in Escherichia coli D21e19 assessed as localization in membrane regions at 1 uM using TAMRA-labeled compound by confocal fluorescence microscopy
Lipopolysaccharide (LPS) [19] = test: Binding affinity to LPS in Escherichia coli D21e7 assessed as localization in membrane regions at 1 uM using TAMRA-labeled compound by confocal fluorescence microscopy
Lipopolysaccharide (LPS) [20] = test: Binding affinity to LPS in Escherichia coli D21f1 assessed as localization in membrane regions at 1 uM using TAMRA-labeled compound by confocal fluorescence microscopy
Lipopolysaccharide (LPS) [21] = test: Binding affinity to LPS in Escherichia coli D21f2 assessed as localization in membrane regions at 1 uM using TAMRA-labeled compound by confocal fluorescence microscopy
Lipopolysaccharide (LPS) [22] = test: Binding affinity to inner core/lipid A region of LPS in Escherichia coli ATCC 25922 at 1.25 uM incubated for 10 mins by protein-retention expansion microscopy
Escherichia coli [23] = test: Binding affinity to outer membrane in POPE/POPG lipid layers containing LPS by SPR assay
Cell membrane [24] = test: Induction of cell membrane fluidity changes in Escherichia coli ATCC 25922 by Laurdan-dye based fluorescence assay; format: subcellular
Cell membrane [25] = test: Induction of cell membrane fluidity changes in Escherichia coli D21f2 by Laurdan-dye based fluorescence assay; format: subcellular
Pseudomonas aeruginosa [26] = test: Sensitization of colistin-induced antimicrobial activity against multidrug-resistant Pseudomonas aeruginosa infected in ICR CD1 mouse model of sepsis protection model assessed as increase in mouse survival at 25 mg/kg, sc QD for 1 days co-treated with 40 mg/kg, sc QD colistin; format: functional; conditions: time 1 day
Pseudomonas aeruginosa [27] = test: Antimicrobial activity against multidrug-resistant Pseudomonas aeruginosa infected in ICR CD1 mouse model of sepsis protection model assessed as increase in mouse survival at 40 mg/kg, sc QD; format: functional, organism-based
Escherichia coli [28] = test: Sensitization of rifampicin-induced antimicrobial activity against Escherichia coli ATCC 25922 infected in ICR CD1 mouse model of sepsis protection model assessed as increase in mouse survival at 30 mg/kg, ip q1h x 8 hrs for 7 days co-treated with 5 mg/kg, sc q4h x 8 hrs rifampicin; format: functional, organism-based; conditions: time 7.0 day
Escherichia coli [29] = test: Sensitization of rifampicin-induced antimicrobial activity against Escherichia coli ATCC 25922 infected in ICR CD1 mouse model of sepsis protection model assessed as mouse survival at 30 mg/kg, ip q1h x 8 hrs for 1 days co-treated with 5 mg/kg, sc q4h x 8 hrs rifampicin; format: functional; conditions: ATCC 25922, 24 h, time 1 day
Escherichia coli [30] = test: Sensitization of linezolid-induced antimicrobial activity against Escherichia coli ATCC 25922 infected in ICR CD1 mouse model of sepsis protection model assessed as mouse survival at 30 mg/kg, ip q1h x 8 hrs for 1 days co-treated with 25 mg/kg, sc q4h x 8 hrs linezolid; format: functional; conditions: ATCC 25922, 24 h, time 1 day
Escherichia coli [31] = test: Sensitization of rifampicin-induced antimicrobial activity against Escherichia coli ATCC 25922 infected in ICR CD1 mouse neutropenic thigh infection model assessed as reduction in bacterial CFU at 240 mg/kg, ip q1h x 8 hrs co-treated with 20 mg/kg, sc q4h x 8 hrs rifampicin; format: functional, organism-based
Escherichia coli [32] = test: Sensitization of linezolid-induced antimicrobial activity against Escherichia coli ATCC 25922 infected in ICR CD1 mouse neutropenic thigh infection model assessed as reduction in bacterial CFU at 150 mg/kg, ip q2h x 4 hrs co-treated with 150 mg/kg, sc q2h x 4 hrs linezolid; format: functional, organism-based
Acinetobacter baumannii [33] = test: Sensitization of linezolid-induced antimicrobial activity against Acinetobacter baumannii OXA infected in mouse skin infection model assessed as reduction in skin ulcer at 7.5 mg/kg, sc TID for 5 days co-treated with 3.1 mg/kg, sc linezolid; format: functional, organism-based; conditions: time 5.0 day
Acinetobacter baumannii [34] = test: Sensitization of clarithromycin-induced antimicrobial activity against Acinetobacter baumannii OXA infected in mouse skin infection model assessed as reduction in skin ulcer at 7.5 mg/kg, sc TID for 5 days co-treated with 20 ug/kg, sc clarithromycin; format: functional, organism-based; conditions: time 5.0 day

Ac-KLLKLLKKPLKLLK-NH2
Activity (Acinetobacter baumannii [1]): Active | MIC (Staphylococcus aureus): > 80 µM | HC10 (Erythrocyte): > 1280 µM | fold change (FC) (Escherichia coli [2]): <=212 | Activity (Escherichia coli [3]): Active | Activity (Escherichia coli [4]): Active | Activity (Escherichia coli [5]): Active | Drug uptake [6]: Not Active | Drug uptake [7]: Active | Drug uptake [8]: Active | Drug uptake [9]: Not Active | Activity (Escherichia coli [10]): inactive | Activity (Cell membrane [11]): inactive | Activity [12]: inactive | Activity (Cell membrane [13]): inactive | Activity (Cell membrane [14]): Active | Time (Escherichia coli [15]): 8 h | Activity (Cell membrane [16]): Active | Activity (Lipopolysaccharide (LPS) [17]): Active | Activity (Lipopolysaccharide (LPS) [18]): Active | Activity (Lipopolysaccharide (LPS) [19]): Active | Activity (Lipopolysaccharide (LPS) [20]): Active | Activity (Lipopolysaccharide (LPS) [21]): Active | Activity (Lipopolysaccharide (LPS) [22]): Active | Activity (Escherichia coli [23]): inactive | Activity (Cell membrane [24]): Dose-dependent effect | Activity (Cell membrane [25]): inactive | Activity (Pseudomonas aeruginosa [26]): 75% | Activity (Pseudomonas aeruginosa [27]): inactive | Activity (Escherichia coli [28]): Active | survival at 30 mg/kg (Escherichia coli [29]): 90% | survival at 30 mg/kg (Escherichia coli [30]): 90% | Activity (Escherichia coli [31]): Active | Activity (Escherichia coli [32]): Active | Activity (Acinetobacter baumannii [33]): Active | Activity (Acinetobacter baumannii [34]): Active
